From EP4702986A1, “POLYPEPTIDE AND USE THEREOF” (Biocells (Beijing) Biotech Co., Ltd., priority 2023, dated 2024)
Numbered stars: 1 amine (or outer) side, 2 acyl side, 3 side chain; on linkers, the order of the positions; unused ones are H or OH. Side chains are listed from the residue outwards. Peptide text beside a SMILES is read from it. * marks the point of attachment. γGlu = O=C(O)[C@H](CCC(=O)[*:2])N[*:1]; Fumaroyl = O=C(O)/C=C/C(=O)*; Lauroyl = CCCCCCCCCCCC(=O)*; AEEA = NCCOCCOCC(=O)O

Test system: VEGF-A
Experiment: VEGF-A protein expression in infarcted brain tissue of tMCAO mice (ELISA)
Format: in vivo, C57/6J mice
Conditions: for VEGF-A: 3 times s.c. (D1, D3, D6), brain tissue after D14
Description: Fifty-one male C57/6J mice, aged 10-12 weeks, weighing 25-30g, were housed for at least 2 days prior to the experiment to adapt to the environment (SPF Biotech). A mouse model of tMCAO was established. The mice were anesthetized with isoflurane. Their body temperature was controlled by a thermostatic blanket and monitored and maintained at 37±0.5°C. A middle incision was made in the skin on the mouse skull, the skin was pulled outward, and a bendable microneedle tip was fixed to the surface of the left parietal bone of the mouse skull. A middle incision on the neck was made to separate the right common carotid artery (CCA), external carotid artery (ECA) and internal carotid artery (ICA). According to the method of Longa (Longa et al., 1989), a silicone rubber-coated suture (RWD Life Science, suture end diameter: 0.22 mm-0.23 mm, MSMC23B120PK50) was introduced through an external carotid artery incision surgery and was slowly advanced through the internal carotid artery towards the origin of the middle cerebral artery. To ensure a sustained and successful occlusion of the middle cerebral artery, we monitored local cerebral blood flow of all stroke animals with a laser speckle flowmeter (generally, the blood flow can be reduced by 40-60% after stabilized). The suture was removed 45 min after the insertion for modeling, and the incision was sutured. Afterward, 1 mL of 37°C warm saline was injected subcutaneously, and the mice were placed on a heating pad until recovery. To alleviate pain, the mice were injected subcutaneously with Tilidine after awakening from anesthesia.
Successfully modeled C57 tMCAO mice were randomly assigned into three groups: a normal saline group, a 30µg/Kg BX229-Na administration group, and a 100µg/Kg BX229-Na administration group. Each group was administered once subcutaneously in the neck 4.5 hours after occlusion (D1), and was administered once more at the same sites and at the same time points on D3 and D6. A sham group included 6 animals. 2 mL/kg was administrated subcutaneously in the neck. Garcia JH scoring was made on D7 and D14 after administration. After the completion of the scoring on D14, the mice were euthanized and harvested for infarcted brain tissues, to extract total proteins. Changes in protein markers VEGF-A and BDNF in each experimental group were detected by ELISA. Table 19: Experimental Grouping and Dosing Regimen

SMILES: CCCCCCCCCCCC(=O)N[C@@H](CCC(=O)NCCOCCOCC(=O)NCCCC[C@H](NC(=O)[C@H](Cc1c[nH]cn1)NC(=O)[C@H](C)NC(=O)[C@H](Cc1ccccc1)NC(=O)[C@H](Cc1ccc(O)cc1)NC(=O)[C@@H](NC(=O)[C@H](C)NC(=O)[C@H](CCC(=O)O)NC(=O)[C@H](CCC(=O)O)NC(=O)[C@H](CC(=O)O)NC(=O)/C=C/C(=O)O)C(C)C)C(=O)N[C@@H](CC(=O)O)C(=O)N[C@H](C(=O)N[C@H](C(=O)N[C@@H](Cc1c[nH]c2ccccc12)C(=O)O)[C@@H](C)CC)C(C)C)C(=O)O [BX229-Na] (Fumaroyl-DEEAVYFAHK([AEEA-γGlu-Lauroyl])DVIW-OH)
- expression level of VEGF-A protein compared with the normal saline group (30µg/Kg three-dose group): higher
- VEGF-A (30 µg/Kg): 441 ± 102 pg/mL
- expression level of VEGF-A protein compared with the normal saline group (100µg/Kg three-dose group): significantly different
- VEGF-A (100 µg/Kg): 562 ± 56 pg/mL
